From patent US10660977B2, “Method for treating biological tissue and biological tissue” (WASEDA UNIVERSITY, priority 2012, dated 2020)

Assay: Concentration of trehalose dissolved in PBS
Assay type: physicochemical
Conditions: PBS at 37° C.
Procedure: Also, the maximum concentration of trehalose was set to 50% because the concentration of trehalose dissolved in PBS at 37° C. was about 50%.

OC[C@H]1O[C@H](O[C@H]2O[C@H](CO)[C@@H](O)[C@H](O)[C@H]2O)[C@H](O)[C@@H](O)[C@@H]1O [trehalose]
concentration of trehalose dissolved in PBS: about 50%
